Experimental data from PMC3368886, “ATPase Cycle and DNA Unwinding Kinetics of RecG Helicase” (PLoS ONE, 2012).

Tests used:
RecG = target: T1, RecG (Thermotoga maritima, UniProt Q9WY48); test: Double-mix stopped-flow: RecG⋅mantATP then mixed with DNA; assay type: biochemical; details: RecG + mantATP aged 1 s, then mixed with DNA junction (A40:B40)
T1 construct: made in house
T1 sequence (Q9WY48 1-780): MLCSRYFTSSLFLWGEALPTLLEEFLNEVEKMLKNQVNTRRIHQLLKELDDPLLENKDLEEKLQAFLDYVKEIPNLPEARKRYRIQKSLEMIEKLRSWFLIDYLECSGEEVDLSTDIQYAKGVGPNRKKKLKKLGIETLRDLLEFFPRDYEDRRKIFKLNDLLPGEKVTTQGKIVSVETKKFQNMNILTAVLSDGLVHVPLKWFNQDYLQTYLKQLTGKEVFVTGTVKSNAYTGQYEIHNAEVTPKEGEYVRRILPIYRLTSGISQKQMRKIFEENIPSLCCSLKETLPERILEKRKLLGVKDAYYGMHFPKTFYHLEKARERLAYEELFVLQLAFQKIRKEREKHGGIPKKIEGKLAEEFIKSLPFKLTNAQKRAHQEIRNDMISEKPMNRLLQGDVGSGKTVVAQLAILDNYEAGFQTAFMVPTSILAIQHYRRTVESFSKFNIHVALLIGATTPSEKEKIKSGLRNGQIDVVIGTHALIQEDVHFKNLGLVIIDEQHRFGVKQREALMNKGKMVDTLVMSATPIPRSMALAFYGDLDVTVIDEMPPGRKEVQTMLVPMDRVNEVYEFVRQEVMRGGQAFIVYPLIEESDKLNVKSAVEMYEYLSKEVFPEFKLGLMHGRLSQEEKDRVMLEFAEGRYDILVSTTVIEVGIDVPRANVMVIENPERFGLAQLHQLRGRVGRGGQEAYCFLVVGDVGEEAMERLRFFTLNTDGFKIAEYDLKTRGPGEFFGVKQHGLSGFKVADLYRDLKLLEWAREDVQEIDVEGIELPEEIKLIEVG
Description: Figure 4 Kinetic measurement of mantATP with excess of RecG and DNA: binding, hydrolysis and Pi release. The concentrations for all experiments were 0.5 µM mantATP, 2.5 µM RecG, 5 µM DNA (A40:B40) and 10 µM MDCC-PBP (for Pi measurement). All measurements were carried out at 20°C in the buffer described in Materials and Methods. (A) Time course of mant fluorescence (solid line), mantADP formation (circles) and Pi release (dashed line), measured as described in materials and methods. […] (B) Simulation of these time courses, based upon a global model for a single turnover of mantATP as described in the text. (C) The time course of mant fluorescence upon mixing 0.5 µM mantATP and 2.5 µM RecG with 5 µM DNA junction (A40:B40) after a first mixing of 5 µM RecG and 1 µM mantATP and aging for 1 s.
As the cleavage step is so slow in the absence of DNA, a double-mix, stopped-flow experiment was performed in order to see if the biphasic increase in mant fluorescence could be separated into the individual processes of mantATP binding and hydrolysis. An excess of RecG was mixed with mantATP and this mix aged for 1 s to allow binding but not hydrolysis. This solution was then mixed with DNA. […] This rate was similar to that of the slower phase, measured above, consistent with this phase being due to DNA-induced hydrolysis.

[1] = target: T2, RecG with three-strand DNA junction (A40:B40:C19) (Thermotoga maritima, UniProt Q9WY48); test: Single turnover ATPase measurements with three-strand junction; assay type: biochemical
T2 construct: made in house
T2 sequence (Q9WY48 1-780): T1 sequence (Q9WY48 1-780)
Description: Therefore, mantATP binding, quench-flow and phosphate measurements were carried out using with sub-stoichiometric mantATP, but with a non-complementary three-strand DNA junction (A40:B40:C19) to form a lagging strand duplex (as defined in Figure 1A). With excess mantATP, the duplex arm of this junction was unwound by the helicase, leaving RecG bound to the two-strand junction with the third strand displaced. With sub-stoichiometric mantATP, there was only a single turnover, so only partial unwinding of this DNA substrate occurred. The kinetics (Figure S2) were similar to those with the two-strand junction with mantATP binding at 4.2 (±0.4) s^−1, hydrolysis at 0.39 (±0.1) s^−1 and fast Pi release.
Supplementary file pone.0038270.s002.tif: Figure S2 Kinetic measurements of mantATP with excess of RecG and a Three-strand DNA Junction. The concentrations for all experiments were 0.5 µM mantATP, 2.5 µM RecG, 5 µM DNA Junction (A40:B40:C19) and 10 µM MDCC-PBP (for Pi measurement). All measurements were carried out under the conditions of Figure 4. Time course of mant fluorescence (continuous line), mantADP formation (circles) and Pi release (dashed line). […] (TIF) Click here for additional data file.

[2] = three-strand junction A40:B40:C19, sub-stoichiometric mantATP

Compound: CNc1ccccc1C(=O)O[C@H]1[C@@H](O)[C@H](n2cnc3c(N)ncnc32)O[C@@H]1COP(=O)(O)OP(=O)(O)OP(=O)(O)O [mantATP, 2′(3′)-O-(N-methylanthraniloyl)ATP]
- rate constant of single exponential increase in mant fluorescence (RecG): 0.3 (±0.04) s^−1
- Pi release ([1]; three-strand junction A40:B40:C19, result in words): fast
- hydrolysis rate [1, 2]: 0.39 (±0.1) s^−1
- mantATP binding rate [1, 2]: 4.2 (±0.4) s^−1
